Earlier results as cited in patent US20060280786A1, “PHARMACEUTICAL FORMULATIONS FOR MINIMIZING DRUG-DRUG INTERACTIONS” (priority 2005, published 2006).

Conditions: 200 mg dose of itraconazole

Q: With CCC(C)n1ncn(-c2ccc(N3CCN(c4ccc(OCC5COC(Cn6cncn6)(c6ccc(Cl)cc6Cl)O5)cc4)CC3)cc2)c1=O (stereo not shown) [itraconazole] as the compound, how does the “fu (fraction of inhibitor drug unbound in plasma)” value read?
A: 0.035
